Data set [1] addresses T1, human recombinant MAO-A (hMAO-A) (Homo sapiens, UniProt P21397).
T1 construct: purchased Sigma Aldrich
T1 sequence (P21397 1-527): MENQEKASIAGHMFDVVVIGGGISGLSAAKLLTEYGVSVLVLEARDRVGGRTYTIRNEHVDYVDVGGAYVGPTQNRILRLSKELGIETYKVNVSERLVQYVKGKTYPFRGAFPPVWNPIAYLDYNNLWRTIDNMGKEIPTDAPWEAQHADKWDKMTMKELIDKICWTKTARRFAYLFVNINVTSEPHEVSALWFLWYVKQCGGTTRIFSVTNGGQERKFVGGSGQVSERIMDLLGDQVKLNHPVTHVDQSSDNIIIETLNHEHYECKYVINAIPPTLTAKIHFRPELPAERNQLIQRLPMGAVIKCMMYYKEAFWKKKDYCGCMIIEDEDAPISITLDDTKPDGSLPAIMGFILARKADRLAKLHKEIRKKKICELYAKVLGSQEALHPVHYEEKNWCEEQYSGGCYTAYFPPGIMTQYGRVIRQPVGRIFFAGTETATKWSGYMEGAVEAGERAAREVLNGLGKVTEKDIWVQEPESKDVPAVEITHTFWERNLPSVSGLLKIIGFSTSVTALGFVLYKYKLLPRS
As to conditions: ref Park, JH. et al. Science Advances. 5(3), eaav0136 (2019), read-out: Inhibition (IC50) MAO-A; cited from earlier work.

In data set [2] the test system is A53T mutant α-synuclein-overexpressing PD model rats. Put plainly: A53T mutant α-synuclein rat model: stepping test and cylinder test. As to conditions: 10 mg/kg/day for 15 days. Type of data set: in vivo. As to the method: (§1) Throughout the study, confounders were not controlled.
Motor dysfunction of A53T α-synuclein model rats was tested using the forelimb-use asymmetry test (cylinder test). Briefly, animals were placed in a transparent Plexiglas cylinder (20 cm in diameter and 30 cm in height) for 2 min to assess the frequency of ipsilesional and contralesional forelimb usage against the cylinder wall for supporting an upright body posture. The test score was calculated as the ratio of ipsilateral usage frequency to total ipsilateral plus contralateral usage frequency.

Data set [3] concerns the target T2, human recombinant MAO-B (hMAO-B) (Homo sapiens, UniProt P27338).
T2 construct: purchased Sigma Aldrich
T2 sequence (P27338 1-520): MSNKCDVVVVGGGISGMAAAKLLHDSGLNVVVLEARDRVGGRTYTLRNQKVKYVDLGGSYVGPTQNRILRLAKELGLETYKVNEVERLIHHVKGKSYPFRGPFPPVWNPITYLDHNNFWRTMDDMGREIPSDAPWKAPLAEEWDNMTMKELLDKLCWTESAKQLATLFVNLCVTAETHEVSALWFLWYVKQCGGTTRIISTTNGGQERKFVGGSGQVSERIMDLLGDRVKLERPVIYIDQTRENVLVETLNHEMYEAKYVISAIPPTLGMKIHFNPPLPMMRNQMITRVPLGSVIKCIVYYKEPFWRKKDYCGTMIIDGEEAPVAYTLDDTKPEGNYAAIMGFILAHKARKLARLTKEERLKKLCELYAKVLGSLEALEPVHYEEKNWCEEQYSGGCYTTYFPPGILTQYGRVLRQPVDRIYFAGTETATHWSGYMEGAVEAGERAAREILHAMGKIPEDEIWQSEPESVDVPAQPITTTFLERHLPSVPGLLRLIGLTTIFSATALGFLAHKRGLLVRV
The note with it: cited from earlier work.

The test system of data set [4] is MPTP-induced PD mouse model. Nature of the data set: MPTP mouse model: glial reactivity (GFAP, LCN2, Iba1 staining, western blot). The note with it: MPTP mice. Type of data set: in vivo. As to the method:
as §1
After extensive washing, sections were incubated with corresponding fluorescent secondary antibodies for 2 h and then washed with three times in PBS. Finally, sections were mounted with fluorescent mounting medium (S3023, Dako) and dried. A series of fluorescent images were obtained using an A1 Nikon confocal microscope, and Z-stack images in 3-μm steps were processed for further analysis using ImageJ. Any alteration in brightness or contrast was applied equally to the entire image set.
Background: In western blotting, separated proteins are transferred to a membrane and probed.

The test system of data set [5] is A53T mutant α-synuclein-overexpressing PD model rats. Put plainly: A53T mutant α-synuclein rat model: TH staining. In kind it is in vivo. The note with it: 10 mg/kg/day for 15 days starting 3 weeks after virus injection.
Source text: as §1

Data set [6] is described as follows: H2O2 scavenging capacity test (Amplex red/HRP). The note with it: 10 min incubation with H2O2 at RT. As to the method:
To determine the H2O2 scavenging capacity of the test compound, H2O2 concentration was measured using the modified Amplex red/horseradish peroxidase (HRP) detection method as described previously. Briefly, a H2O2 solution was incubated with the test compound for 10 min at room temperature (RT), and then the reaction solution containing 20 mM Amplex red and 200 U/mL HRP was added. The absorbance was measured at 570 nm using a microplate reader. The H2O2 scavenging capacities were compared to a blank negative control and to the known H2O2 scavenger epigallocatechin gallate (EGCG) as a positive control.

Data set [7] in a line: Pharmacokinetic study in cynomolgus monkeys (N118029). In kind it is in vivo, cynomolgus monkey (Macaca fascicularis). As to conditions: male, cynomolgus monkey, plasma, po.
Description: All animals were at least 24 months old. […] Males and females were assigned to treatment groups in a stratified manner using the Pristima System based on most recent body weight. Clinical signs, including mortality, moribundity, general appearance, and behavioral changes, were recorded with date, time, and duration. Body weight was measured prior to the first KDS2010 dose. For oral administration, KDS2010 was dissolved in water. In total, 42 monkeys were administered KDS2010 and ultimately sacrificed for autopsy.
In the pharmacokinetic study (N118029), six male monkeys were assigned to 2 groups receiving either 10 or 30 mg/kg oral KDS2010. […] Blood samples were mixed gently, stored in a wet-ice cryo-rack, and centrifuged (approximately 13,200 rpm, 5 min, 4°C) to obtain plasma. The separated plasma was aliquoted into polypropylene tubes and stored frozen until analysis.
A non-compartmental analysis module in Phoenix® WinNonlin® (version 6.4) (Certara Inc., CA, USA) was used to calculate pharmacokinetic (PK) parameters. Systemic exposure to KDS2010 was calculated by applying the linear trapezoidal rule to the area under the plasma concentration–time curve from time zero to the last quantifiable time point (AUClast), and the maximum observed peak plasma concentration (Cmax) and the time to reach Cmax (Tmax) were determined based on the observed data.

In the case of `C[C@H](NCc1ccc(-c2ccc(C(F)(F)F)cc2)cc1)C(N)=O` [Compound 18j], the IC50 (as a rule, the concentration that inhibits the measured activity by half) in data set [1] is above 100 µM. Further, in data set [2], the “cylinder test: asymmetric usage of forelimbs” value is “alleviated” and the “stepping test: impaired stepping behavior of the contralateral forepaw” value is listed as “significantly alleviated”. Besides, the “mode of MAO-B inhibition” value in data set [3] (same binding cavity as selegiline) was “competitive inhibitor”. Further, the “reversibility of MAO-B inhibition” value in data set [3] (with enantiomeric selectivity) is “reversible”. In addition, in data set [4], the “GFAP staining intensity in SNpc” value is listed as “significantly reduced”; the “LCN2 expression in GFAP-positive astrocytes” value was “reversed”; the “number of Iba1-positive microglia in SNpc” value is given as “significantly reduced”; the “reactive transformation of microglia (larger cell bodies, shorter processes)” value is listed as “reversed”. The “volume of GFAP-positive astrocytes in SNpc (hypertrophy)” value in data set [4] is reported as “eliminated”. Also, the “MPTP-induced changes of TH, GFAP and iNOS expression (western blotting)” value in data set [4] (SNpc) is “all of these changes were reversed”. For the same compound, in data set [5], the “number of remaining TH-positive neurons in the injected SNpc” value is reported as “increased” and the “striatal TH loss” value is recorded as “significantly reversed”. For the same compound, in data set [6], the H2O2 scavenging effect entry is “did not show any H2O2 scavenging effect”. In addition, in data set [7] (10 mg/kg), the exposure (AUC) (in general, the area under the concentration-time curve, a measure of exposure) turned out to be 30600 ± 422 ng·h/mL and the peak concentration (Cmax) – broadly, the highest concentration seen after dosing – is 2230 ± 143 ng/mL. In data set [7] (30 mg/kg), this compound yielded an AUC of 80800 ± 5370 ng·h/mL and a Cmax of 4850 ± 568 ng/mL.
